According to ChEMBL document CHEMBL3112412, “Synthesis and receptor binding studies of some new arylcarboxamide derivatives as sigma-1 ligands” (Bioorg Med Chem Lett, 2014):

Key:
[1] = Displacement of [3H]-DTG from sigma 2 receptor in guinea pig brain after 120 mins by liquid scintillation counting; parameters: species or system Cavia porcellus
[2] = Selectivity ratio of Ki for sigma 2 receptor in guinea pig brain to Ki for sigma 1 receptor in rat liver homogenate; format: tissue-based
[3] = biological target: Sigma non-opioid intracellular receptor 1 (Rattus norvegicus, UniProt Q9R0C9); assay: Displacement of [3H](+)-pentazocine from sigma 1 receptor in rat liver homogenate after 120 mins by liquid scintillation counting; format: tissue-based
Sigma non-opioid intracellular receptor 1, sequence (Q9R0C9 whole entry): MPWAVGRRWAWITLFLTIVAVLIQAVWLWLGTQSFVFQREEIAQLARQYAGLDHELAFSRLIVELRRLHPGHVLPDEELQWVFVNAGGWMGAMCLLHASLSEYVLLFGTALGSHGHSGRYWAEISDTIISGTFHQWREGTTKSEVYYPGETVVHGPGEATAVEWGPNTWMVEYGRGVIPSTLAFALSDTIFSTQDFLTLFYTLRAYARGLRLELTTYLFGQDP

Structure (SMILES)	Ki [1] [nM]	Ratio Ki [2]	Ki [3] [nM]
CCN(CC1CCN(Cc2ccccc2)CC1)C(=O)c1cccc2ccccc12	> 1000	> 6	161
CCN(CC1CCN(Cc2ccccc2)CC1)C(=O)c1ccc(C)cc1	> 500	> 3	160
CCN(CC1CCN(Cc2ccccc2)CC1)C(=O)c1ccc2ccccc2c1	270	1.36	198
CCN(CC1CCN(Cc2ccccc2)CC1)C(=O)c1ccc(Cl)cc1	> 1000	> 17	59.1
CCN(CC1CCN(Cc2ccc(Cl)cc2)CC1)C(=O)c1cccc2ccccc12	> 1000	> 4	215
CCN(CC1CCN(Cc2ccc(Cl)cc2)CC1)C(=O)c1ccccc1	–	–	155
CCN(CC1CCN(Cc2ccccc2)CC1)C(=O)c1ccc(OC)cc1	–	–	192
CCN(CC1CCN(Cc2ccccc2)CC1)C(=O)c1ccco1	> 3000	> 140	21.2
CCN(CC1CCN(Cc2ccccc2)CC1)C(=O)c1ccccc1	–	–	66.8
CCN(CC1CCN(Cc2ccccc2)CC1)C(=O)c1ccc(-c2ccccc2)cc1	> 500	> 1	301
CCN(CC1CCN(Cc2ccc(Cl)cc2)CC1)C(=O)c1ccc(OC)cc1	283	1.3	217
CCN(CC1CCN(Cc2ccc(Cl)cc2)CC1)C(=O)c1ccc2ccccc2c1	–	–	225
CCN(CC1CCN(Cc2ccc(Cl)cc2)CC1)C(=O)c1ccco1	> 500	> 40	13.6
CCN(CC1CCN(Cc2ccc(Cl)cc2)CC1)C(=O)c1ccc(Cl)cc1	> 1000	> 11	91
CCN(CC1CCN(Cc2ccc(Cl)cc2)CC1)C(=O)c1ccc(-c2ccccc2)cc1	–	–	373
CCN(CC1CCN(Cc2ccc(Cl)cc2)CC1)C(=O)c1ccc(C)cc1	> 500	> 3	140
